# Where a name gives a salt, the structure may show the parent alone.
# Assays:
# NaV1.1 = NaV1.1 (Homo sapiens (Human), UniProt P35498); test: Sodium Influx Assay (Flux), NaV1.1; assay type: cell-based; conditions: Trex HEK293 cells, ANG2 dye; arithmetic mean
# NaV1.6 = NaV1.6 (Homo sapiens (Human), UniProt Q9UQD0); test: Sodium Influx Assay (Flux), NaV1.6; conditions: read-out: Flux NaV1.6 IC50; Trex HEK293 cells, ANG2 dye; arithmetic mean
# NaV1.5 = NaV1.5 (Homo sapiens (Human), UniProt Q14524); test: Sodium Influx Assay (Flux), NaV1.5; conditions: read-out: Flux NaV1.5 IC50; Trex HEK293 cells, ANG2 dye; arithmetic mean
# Sequence of NaV1.5 (Q14524 other isoform, or with tags, fused parts or gaps): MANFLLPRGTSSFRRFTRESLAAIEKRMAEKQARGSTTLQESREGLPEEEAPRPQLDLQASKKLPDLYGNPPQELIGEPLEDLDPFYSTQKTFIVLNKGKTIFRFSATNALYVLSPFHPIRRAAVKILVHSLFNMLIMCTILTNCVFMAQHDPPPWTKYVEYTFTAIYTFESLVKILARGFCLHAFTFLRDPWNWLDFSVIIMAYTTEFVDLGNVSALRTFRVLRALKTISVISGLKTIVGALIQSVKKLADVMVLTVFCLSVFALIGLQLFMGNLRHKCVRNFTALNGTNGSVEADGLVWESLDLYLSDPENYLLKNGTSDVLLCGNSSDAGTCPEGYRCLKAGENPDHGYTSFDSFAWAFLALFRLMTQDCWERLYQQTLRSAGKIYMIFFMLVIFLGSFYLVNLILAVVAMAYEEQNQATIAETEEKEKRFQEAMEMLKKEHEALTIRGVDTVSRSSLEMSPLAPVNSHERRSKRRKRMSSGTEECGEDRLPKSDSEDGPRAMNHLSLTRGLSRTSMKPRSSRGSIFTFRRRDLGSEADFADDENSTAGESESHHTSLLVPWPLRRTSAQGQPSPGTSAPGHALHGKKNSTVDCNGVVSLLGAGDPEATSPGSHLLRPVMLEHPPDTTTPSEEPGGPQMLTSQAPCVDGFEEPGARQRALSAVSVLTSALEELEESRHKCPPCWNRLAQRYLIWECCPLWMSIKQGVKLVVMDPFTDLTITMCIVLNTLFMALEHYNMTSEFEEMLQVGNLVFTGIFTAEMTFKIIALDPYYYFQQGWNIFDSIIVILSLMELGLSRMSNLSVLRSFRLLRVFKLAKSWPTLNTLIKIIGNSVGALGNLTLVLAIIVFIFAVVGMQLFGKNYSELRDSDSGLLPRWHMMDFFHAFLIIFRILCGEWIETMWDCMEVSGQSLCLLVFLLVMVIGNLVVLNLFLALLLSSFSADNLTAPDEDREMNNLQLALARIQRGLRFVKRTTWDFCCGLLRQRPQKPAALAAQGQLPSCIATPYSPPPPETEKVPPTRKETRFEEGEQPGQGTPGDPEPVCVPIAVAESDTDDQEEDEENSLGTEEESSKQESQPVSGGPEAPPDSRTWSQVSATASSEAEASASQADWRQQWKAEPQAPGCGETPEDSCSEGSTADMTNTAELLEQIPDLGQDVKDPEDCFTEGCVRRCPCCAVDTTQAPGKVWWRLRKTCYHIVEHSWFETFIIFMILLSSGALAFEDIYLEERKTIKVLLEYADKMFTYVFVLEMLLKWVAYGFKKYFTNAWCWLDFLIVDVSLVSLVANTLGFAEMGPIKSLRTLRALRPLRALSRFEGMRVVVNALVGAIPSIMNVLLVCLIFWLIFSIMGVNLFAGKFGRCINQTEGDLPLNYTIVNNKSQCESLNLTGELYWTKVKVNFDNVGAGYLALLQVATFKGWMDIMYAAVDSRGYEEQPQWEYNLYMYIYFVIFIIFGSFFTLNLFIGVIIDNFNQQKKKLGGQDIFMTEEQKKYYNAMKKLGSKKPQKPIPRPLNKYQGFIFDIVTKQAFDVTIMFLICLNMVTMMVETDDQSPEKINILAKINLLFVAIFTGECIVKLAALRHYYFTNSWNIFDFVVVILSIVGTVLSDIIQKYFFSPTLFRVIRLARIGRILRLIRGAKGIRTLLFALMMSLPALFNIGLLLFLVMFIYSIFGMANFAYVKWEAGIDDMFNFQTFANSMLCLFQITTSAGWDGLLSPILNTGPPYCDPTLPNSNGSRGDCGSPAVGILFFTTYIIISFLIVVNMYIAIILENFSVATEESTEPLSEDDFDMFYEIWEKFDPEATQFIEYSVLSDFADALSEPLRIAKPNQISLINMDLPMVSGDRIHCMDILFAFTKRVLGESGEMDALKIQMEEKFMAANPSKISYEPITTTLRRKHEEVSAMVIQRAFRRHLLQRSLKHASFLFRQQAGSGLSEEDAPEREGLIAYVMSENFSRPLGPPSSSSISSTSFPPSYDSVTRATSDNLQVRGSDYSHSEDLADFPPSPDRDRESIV
IC50 (NaV1.1),IC50 (NaV1.6),SMILES,IC50 (NaV1.5)
7.48 µM,4 µM,"Cc1cc(S(=O)(=O)Nc2cscn2)c(F)cc1N(C)[C@H]1CCN(CC2CCCCC2)C1 [Example 123, (S)-4-((1-(cyclohexylmethyl)-pyrrolidin-3-yl)(methyl)amino)-2-fluoro-5-methyl-N-(thiazol-4-yl)benzenesulfonamide]",> 30 µM
> 30 µM,4.52 µM,"Cc1cc(S(=O)(=O)Nc2cscn2)c(F)cc1N(C)[C@H]1CCN(Cc2ccc(O)cc2)C1 [Example 126, (S)-2-fluoro-4-((1-(4-hydroxybenzyl)-pyrrolidin-3-yl)(methyl)amino)-5-methyl-N-(thiazol-4-yl)benzenesulfonamide]",> 30 µM
10.7 µM,0.52 µM,"Cc1cc(S(=O)(=O)Nc2cscn2)c(F)cc1N(C)[C@H]1CCN(Cc2cccc(C)c2F)C1 [Example 127, (S)-2-fluoro-4-((1-(2-fluoro-3-methylbenzyl)pyrrolidin-3-yl)(methyl)amino)-5-methyl-N-(thiazol-4-yl)benzenesulfonamide 2,2,2-trifluoroacetate]",10.1 µM
> 30 µM,0.828 µM,"Cc1csc(CN2CC[C@H](N(C)c3cc(F)c(S(=O)(=O)Nc4cscn4)cc3C)C2)n1 [Example 129, (S)-2-fluoro-5-methyl-4-(methyl(1-((4-methylthiazol-2-yl)methyl)pyrrolidin-3-yl)amino)-N-(thiazol-4-yl)benzenesulfonamide]",> 30 µM
> 30 µM,0.285 µM,"Cc1ccc(F)c(CN2CC[C@H](N(C)c3cc(F)c(S(=O)(=O)Nc4cscn4)cc3C)C2)n1 [Example 130, (S)-2-fluoro-4-((1-((3-fluoro-6-methylpyridin-2-yl)methyl)pyrrolidin-3-yl)(methyl)amino)-5-methyl-N-(thiazol-4-yl)benzenesulfonamide]",24.2 µM
> 30 µM,2.86 µM,"Cc1nc(CN2CC[C@H](N(C)c3cc(F)c(S(=O)(=O)Nc4cscn4)cc3C)C2)co1 [Example 131, (S)-2-fluoro-5-methyl-4-(methyl(1-((2-methyloxazol-4-yl)methyl)pyrrolidin-3-yl)amino)-N-(thiazol-4-yl)benzenesulfonamide]",> 30 µM
10.9 µM,0.245 µM,"Cc1cc(S(=O)(=O)Nc2cscn2)c(F)cc1N(C)[C@H]1CCN(Cc2coc(C(C)C)n2)C1 [Example 133, (S)-2-fluoro-4-((1-((2-isopropyloxazol-4-yl)methyl)pyrrolidin-3-yl)(methyl)amino)-5-methyl-N-(thiazol-4-yl)benzenesulfonamide]",> 30 µM
12.1 µM,0.412 µM,"Cc1cc(S(=O)(=O)Nc2cscn2)c(F)cc1N(C)[C@H]1CCN(Cc2nc(C3CC3)cs2)C1 [Example 134, (S)-4-((1-((4-cyclopropylthiazol-2-yl)methyl)pyrrolidin-3-yl)(methyl)amino)-2-fluoro-5-methyl-N-(thiazol-4-yl)benzenesulfonamide]",> 30 µM
9.48 µM,0.05 µM,"Cc1cc(S(=O)(=O)Nc2cscn2)c(F)cc1N(C)[C@H]1CCN(Cc2csc(C3CC3)n2)C1 [Example 138, (S)-4-((1-((2-cyclopropylthiazol-4-yl)methyl)pyrrolidin-3-yl)(methyl)amino)-2-fluoro-5-methyl-N-(thiazol-4-yl)benzenesulfonamide]",10.4 µM
9.63 µM,0.515 µM,"Cc1cc(S(=O)(=O)Nc2cscn2)c(F)cc1N(C)[C@H]1CCN(Cc2nc(C(C)C)cs2)C1 [Example 145, (S)-2-fluoro-4-((1-((4-isopropylthiazol-2-yl)methyl)pyrrolidin-3-yl)(methyl)amino)-5-methyl-N-(thiazol-4-yl)benzenesulfonamide]",17.1 µM

# The next lines start with the molecule.
SMILES,IC50 (NaV1.1),IC50 (NaV1.6),IC50 (NaV1.5)
"Cc1cc(S(=O)(=O)Nc2cscn2)c(F)cc1N(C)[C@H]1CCN(CC(C)(C)C)C1 [Example 124, (S)-2-fluoro-5-methyl-4-(methyl(1-neopentylpyrrolidin-3-yl)amino)-N-(thiazol-4-yl)benzenesulfonamide formate]",> 30 µM,9.92 µM,> 30 µM
"Cc1cc(S(=O)(=O)Nc2cscn2)c(F)cc1N(C)[C@H]1CCN(CCC(C)(C)C)C1 [Example 125, (S)-4-((1-(3,3-dimethylbutyl)-pyrrolidin-3-yl)(methyl)amino)-2-fluoro-5-methyl-N-(thiazol-4-yl)benzenesulfonamide formate]",14.7 µM,2.32 µM,> 30 µM
"Cc1cc(S(=O)(=O)Nc2cscn2)c(F)cc1N(C)[C@H]1CCN([C@H]2CCc3ccccc32)C1 [Example 128, 4-(((S)-1-((S)-2,3-dihydro-1H-inden-1-yl)pyrrolidin-3-yl)(methyl)amino)-2-fluoro-5-methyl-N-(thiazol-4-yl)benzenesulfonamide]",> 30 µM,0.185 µM,22.5 µM
"Cc1ccc(CN2CC[C@H](N(C)c3cc(F)c(S(=O)(=O)Nc4cscn4)cc3C)C2)o1 [Example 132, (S)-2-fluoro-5-methyl-4-(methyl(1-((5-methylfuran-2-yl)methyl)pyrrolidin-3-yl)amino)-N-(thiazol-4-yl)benzenesulfonamide]",20.9 µM,0.146 µM,> 30 µM
"Cc1cc(S(=O)(=O)Nc2cscn2)c(F)cc1N(C)[C@H]1CCN(Cc2csc(-c3ccccc3)n2)C1 [Example 135, (S)-2-fluoro-5-methyl-4-(methyl(1-((2-phenylthiazol-4-yl)methyl)pyrrolidin-3-yl)amino)-N-(thiazol-4-yl)benzenesulfonamide]",0.564 µM,0.64 µM,1.67 µM
"Cc1cc(S(=O)(=O)Nc2cscn2)c(F)cc1N(C)[C@H]1CCN(Cc2nccs2)C1 [Example 136, (S)-2-fluoro-5-methyl-4-(methyl(1-(thiazol-2-ylmethyl)pyrrolidin-3-yl)amino)-N-(thiazol-4-yl)benzenesulfonamide]",> 30 µM,6.79 µM,> 30 µM
"Cc1cc(S(=O)(=O)Nc2cscn2)c(F)cc1N(C)[C@H]1CCN(Cc2csc(C(F)(F)F)n2)C1 [Example 137, (S)-2-fluoro-5-methyl-4-(methyl(1-((2-(trifluoromethyl)thiazol-4-yl)methyl)pyrrolidin-3-yl)amino)-N-(thiazol-4-yl)benzenesulfonamide]",5.07 µM,0.217 µM,16.5 µM
"Cc1coc(CN2CC[C@H](N(C)c3cc(F)c(S(=O)(=O)Nc4cscn4)cc3C)C2)n1 [Example 139, (S)-2-fluoro-5-methyl-4-(methyl(1-((4-methyloxazol-2-yl)methyl)pyrrolidin-3-yl)amino)-N-(thiazol-4-yl)benzenesulfonamide]",> 30 µM,7.73 µM,> 30 µM
"Cc1cc(S(=O)(=O)Nc2cscn2)c(F)cc1N(C)[C@H]1CCN(Cc2cscn2)C1 [Example 140, (S)-2-fluoro-5-methyl-4-(methyl(1-(thiazol-4-ylmethyl)pyrrolidin-3-yl)amino)-N-(thiazol-4-yl)benzenesulfonamide]",> 30 µM,2.08 µM,> 30 µM
"Cc1cc(S(=O)(=O)Nc2cscn2)c(F)cc1N(C)[C@H]1CCN(Cc2cc(C)n(C)n2)C1 [Example 141, (S)-4-((1-((1,5-dimethyl-1H-pyrazol-3-yl)methyl)pyrrolidin-3-yl)(methyl)amino)-2-fluoro-5-methyl-N-(thiazol-4-yl)benzenesulfonamide]",> 30 µM,0.582 µM,> 30 µM
"Cc1cc(S(=O)(=O)Nc2cscn2)c(F)cc1N(C)[C@H]1CCN(Cc2ccc(C(F)(F)F)o2)C1 [Example 142, (S)-2-fluoro-5-methyl-4-(methyl(1-((5-(trifluoromethyl)furan-2-yl)methyl)pyrrolidin-3-yl)amino)-N-(thiazol-4-yl)benzenesulfonamide]",3.7 µM,0.531 µM,6.76 µM
"Cc1cc(S(=O)(=O)Nc2cscn2)c(F)cc1N(C)[C@H]1CCN(Cc2cocn2)C1 [Example 143, (S)-2-fluoro-5-methyl-4-(methyl(1-(oxazol-4-ylmethyl)pyrrolidin-3-yl)amino)-N-(thiazol-4-yl)benzenesulfonamide]",> 30 µM,10.2 µM,> 30 µM
"Cc1cc(S(=O)(=O)Nc2cscn2)c(F)cc1N(C)[C@H]1CCN(Cc2nc3ccccc3s2)C1 [Example 144, (S)-4-((1-(benzo[d]thiazol-2-ylmethyl)pyrrolidin-3-yl)(methyl)amino)-2-fluoro-5-methyl-N-(thiazol-4-yl)benzenesulfonamide]",6.72 µM,4.8 µM,8.47 µM
"Cc1cc(S(=O)(=O)Nc2cscn2)c(F)cc1N(C)[C@H]1CCN(Cc2ncc(Cl)s2)C1 [Example 146, (S)-4-((1-((5-chlorothiazol-2-yl)methyl)pyrrolidin-3-yl)(methyl)amino)-2-fluoro-5-methyl-N-(thiazol-4-yl)benzenesulfonamide]",9.32 µM,4.4 µM,12.1 µM
"Cc1cc(S(=O)(=O)Nc2cscn2)c(F)cc1N(C)[C@H]1CCN(Cc2ccn(C(F)F)n2)C1 [Example 147, (S)-4-((1-((1-(difluoromethyl)-1H-pyrazol-3-yl)methyl)pyrrolidin-3-yl)(methyl)amino)-2-fluoro-5-methyl-N-(thiazol-4-yl)benzenesulfonamide]",> 30 µM,0.482 µM,> 30 µM
"Cc1ccccc1CN1CC[C@H](N(C)c2cc(F)c(S(=O)(=O)Nc3cscn3)cc2C)C1 [Example 148, (S)-2-fluoro-5-methyl-4-(methyl(1-(2-methylbenzyl)pyrrolidin-3-yl)amino)-N-(thiazol-4-yl)benzenesulfonamide]",7.58 µM,0.129 µM,12.4 µM

# Reference: US10246453B2, “Benzenesulfonamide compounds and their use as therapeutic agents” (Xenon Pharmaceuticals Inc., priority 2016, dated 2019)
